Measured values from publication PMC10652874, “Investigation into the mechanism of action of the antimicrobial peptide epilancin 15X” (Frontiers in Microbiology, 2023).

System: S. carnosus TM300
Assay: RNAseq differential gene expression
Type: cell-based, Staphylococcus carnosus
Method: For the RNAseq experiments, epilancin was added at sub-lethal concentration (0.5x MIC) to S. carnosus TM300 once the cultures reached an OD600 of 0.6. RNA was extracted 40 min after the treatment, using a FastRNA Pro Blue kit (MP Biomedicals). Both treated and parallel untreated samples were collected at the same time. Sequencing was performed at the Carver Biotechnology Center (UIUC). For RNAseq analysis, gene counts were read in to R (v3.1.1; [Team, 2014]), and 14/2441 genes were removed because they had fewer than 32 total counts across the six samples. edgeR’s (v3.6.7) TMM normalization ([Robinson and Oshlack, 2010]) plus negative binomial generalized log-linear model ([McCarthy et al., 2012]) was used to test for differential expression between treated and untreated groups, while accounting for pairing of U and T replicates from three different cultures. p-values were adjusted using the false discovery rate method ([Benjamini and Hochberg, 1995]).

[1] = AraC family transcriptional regulator
[2] = S. carnosus TM300, 0.5x MIC, RNA extracted 40 min after treatment

Epilancin 15X
fold_change Sca_0118: 2.03
fold_change Sca_0226: 2.6
fold_change Sca_0277: 4.82
fold_change Sca_0326: 2.89
fold_change Sca_0702: 3.4
fold_change Sca_1839: 2.65
fold_change Sca_0283 (4-aminobutyrate aminotransferase): 2.6
fold_change Sca_1048 (5-bromo-4-chloroindolyl phosphate hydrolysis protein XpaC): 2.07
fold_change rpsN (30S ribosomal protein S14): 0.49
fold_change rplS (50S ribosomal protein L19): 0.5
fold_change Sca_1439 (ABC transporter ATP-binding protein): 2.23
fold_change Sca_0292 (ATP-binding cassette transporter A): 2.29
fold_change clpP (ATP-dependent Clp protease proteolytic subunit): 5.08
fold_change recG (ATP-dependent DNA helicase RecG): 2.72
fold_change Sca_0180 (ATP:guanido phosphotransferase): 4.91
fold_change Sca_0313 [1]: 2.06
fold_change Sca_0314 [1]: 2.39
fold_change Sca_0315 [1]: 2.4
fold_change Sca_0113 (ArsR family transcription regulator): 4.25
fold_change clpB (ClpB chaperone): 10.1
fold_change clpC (ClpC ATPase family protein): 4.95
fold_change dltA (D-alanine--poly(phosphoribitol) ligase subunit 1): 2.2
fold_change dltC (D-alanine--poly(phosphoribitol) ligase subunit 2): 2.03
fold_change dnaN (DNA polymerase III subunit beta): 2.14
fold_change dinB (DNA polymerase IV, gene dinP): 2.92
fold_change dltB (DltB membrane protein): 2.19
fold_change Sca_2272 (Glycerate kinase): 2.24
fold_change Sca_0776 (Glyoxalase family protein): 2.76
fold_change hslO (Hsp33-like chaperonin, gene hsp33): 2.39
fold_change Sca_0214 (LD-carboxypeptidase family protein): 0.5
fold_change lexA (LexA repressor): 2.01
fold_change Sca_0115 (LysR family transcriptional regulator): 2.11
fold_change moaD (MoaD): 2.46
fold_change moaE (MoaE): 2.53
fold_change mobB (MobB): 2.72
fold_change moaA (Molybdenum cofactor biosynthesis protein A): 2.82
fold_change nanA (N-acetylneuraminate lyase): 2.13
expression of vraR, upregulated compared to untreated control [2]: 8 fold
expression of vraS, upregulated compared to untreated control [2]: 8 fold
fold_change Sca_0453 (TOPRIM domain-containing protein): 3.05
fold_change Sca_2234 (TetR family transcriptional regulator): 2.13
fold_change Sca_2397 (ThiJ/PfpI family protein): 4.76
fold_change gtaB (UTP-glucose-1-phosphate uridyltransferase): 0.5
fold_change Sca_0065 (acetoin reductase): 4.35
fold_change mecA (adaptor protein, gene SCA_0598): 2.48
fold_change glpD (aerobic glycerol-3-phosphate dehydrogenase): 2.81
fold_change Sca_2335 (alcohol dehydrogenase, zinc-containing, gene gutB): 2.81
fold_change ahpC (alkyl hydroperoxide reductase subunit C): 5.8
fold_change ahpF (alkyl hydroperoxide reductase subunit F): 5.74
fold_change lrgB (antiholin-like protein LrgB): 5.42
fold_change capM (capsular polysaccharide synthesis enzyme Cap5M): 0.49
fold_change katA (catalase): 2.04
fold_change dnaJ (chaperone protein DnaJ): 2.06
fold_change uvrA (excinuclease ABC subunit A): 3.06
fold_change uvrB (excinuclease ABC subunit B): 3.63
fold_change uvrC (excinuclease ABC subunit C): 2.28
fold_change Sca_1475 (formate dehydrogenase): 2.72
fold_change fdh (formate dehydrogenase): 3.34
fold_change (gene SCA_0282 (thrS), threonyl-tRNA synthetase): 0.44
fold_change (gene Sca_0027 (ssb), putative single-strand DNA-binding protein): 0.48
fold_change (gene Sca_0095, putative autolysin with LysM domain): 0.47
fold_change (gene Sca_0210, Choloylglycine hydrolase family protein): 0.42
fold_change (gene Sca_0261, FecCD transport family protein): 0.48
fold_change (gene Sca_0273, putative lipoprotein, AdhesinB family protein): 0.41
fold_change (gene Sca_0274, putative ABC transporter permease): 0.44
fold_change (gene Sca_0348 (fruA), putative fructose specific permease): 0.49
fold_change (gene Sca_0374, putative proton-dependent oligopeptide transporter): 0.43
fold_change (gene Sca_0418, putative branched-chain amino acid transport system II carrier protein): 0.4
fold_change (gene Sca_0437 (csp), putative cold-shock protein): 0.43
fold_change (gene Sca_0445, hypothetical protein): 0.43
fold_change (gene Sca_0446, hypothetical protein): 0.45
fold_change (gene Sca_0547, cytosol aminopeptidase family protein): 0.42
fold_change (gene Sca_0617, hypothetical protein): 0.45
fold_change (gene Sca_0626, putative sodium transport protein): 0.4
fold_change (gene Sca_0661): 0.41
fold_change (gene Sca_0724, putative DNA binding protein): 0.44
fold_change (gene Sca_0743, hypothetical protein): 0.4
fold_change (gene Sca_0749, hypothetical protein): 0.48
fold_change (gene Sca_0919, hypothetical protein): 0.44
fold_change (gene Sca_0920, hypothetical protein): 0.46
fold_change (gene Sca_0975, putative amino acid permease): 0.46
fold_change (gene Sca_0984, hypothetical protein): 0.41
fold_change (gene Sca_1053, hypothetical protein): 0.47
fold_change (gene Sca_1134, hypothetical protein): 0.45
fold_change (gene Sca_1194, hypothetical protein): 0.48
fold_change (gene Sca_1195): 0.43
fold_change (gene Sca_1364 (leuS''), leucyl-tRNA synthetase (fragment 2)): 0.47
fold_change (gene Sca_1365 (leuS'), leucyl-tRNA synthetase (fragment 1)): 0.4
fold_change (gene Sca_1388, hypothetical protein): 0.46
fold_change (gene Sca_1421, hypothetical protein): 0.46
fold_change (gene Sca_1425, hypothetical protein): 0.45
fold_change (gene Sca_1427, hypothetical protein): 0.41
fold_change (gene Sca_1433, hypothetical protein): 0.44
fold_change (gene Sca_1450, hypothetical protein): 0.41
fold_change (gene Sca_1584, hypothetical protein): 0.47
fold_change (gene Sca_1777, hypothetical protein): 0.41
fold_change (gene Sca_1794, hypothetical protein): 0.43
fold_change (gene Sca_1832, hypothetical protein): 0.42
fold_change (gene Sca_1870, hypothetical protein): 0.45
fold_change (gene Sca_1880, hypothetical protein): 0.46
fold_change (gene Sca_1922, putative integral membrane efflux protein): 0.41
fold_change (gene Sca_1980, putative L-serine dehydratase beta chain): 0.42
fold_change (gene Sca_1997, hypothetical protein): 0.49
fold_change (gene Sca_2043, hypothetical protein): 0.46
fold_change (gene Sca_2184, hypothetical protein): 0.4
fold_change (gene Sca_2345, hypothetical protein): 0.41
fold_change (gene Sca_2346, putative capsular polysaccharide biosynthesis protein): 0.41
fold_change (gene Sca_2352, hypothetical protein): 0.48
fold_change (gene Sca_2411): 0.47
fold_change (gene apbA, putative 2-dehydropantoate 2-reductase): 0.47
fold_change (gene aspS, aspartyl-tRNA synthetase): 0.43
fold_change (gene atpD, F0F1 ATP synthase subunit beta): 0.41
fold_change (gene capB, capsular polysaccharide biosynthesis protein): 0.43
fold_change (gene ctaB, protoheme IX farnesyltransferase): 0.41
fold_change (gene cysE, serine acetyltransferase): 0.46
fold_change (gene deoD, purine nucleoside phosphorylase): 0.48
fold_change (gene engB (SCA_1279), ribosome biogenesis GTP-binding protein YsxC): 0.47
fold_change (gene fbp, putative fructose-bisphosphatase): 0.41
fold_change (gene fecB, putative ferrichrome ABC transporter (binding protein)): 0.42
fold_change (gene fruB, putative fructose 1-phosphate kinase): 0.42
fold_change (gene gcvH (gcdH), glycine cleavage system protein H): 0.45
fold_change (gene gcvPB' (gcvPB''), glycine dehydrogenase [decarboxylating] subunit 2(fragment 1)): 0.43
fold_change (gene gntR, putative gluconate operon transcriptional repressor): 0.47
fold_change (gene gudB, NAD-specific glutamate dehydrogenase): 0.47
